For 19 compounds, IC50 results are on record in patent publication US9085606B2, “Beta amino acid derivatives as integrin antagonists” (Saint Louis University, priority 2012, dated 2015).

Experiment [1] deals with T1, Recombinant human integrin α5β1 (Homo sapiens, UniProt P05556+P08648).
T1 construct: purchased R&D Systems 3230-A5
In words: Solid Phase Receptor Assay for α5β1 Function. As to conditions: binding to fibronectin-coated plate; read-out: α5β1 SPRA IC50. The method, then:
Solid Phase Receptor Assay for α5β1 Function.
Wells were washed 3 times with 150 μL TBS+ and 150 μl of blocking buffer (TBS+ with 1% bovine serum albumin, Sigma A7906) were added. The plate was incubated for 1 hr at 37° C. and then washed 3× with TBS+ buffer. […] Compounds were diluted 1:100 into the integrin solution and then 50 μL added to empty wells of the washed fibronectin-coated plate according to a standard template with each sample repeated in triplicate. After incubation for two hours at room temperature, the plate was washed 3× with 150 μL of TBS+ buffer. To each well, 50 μL of biotinylated anti-α5 antibody (R&D Systems, BAF1864) at 0.5 ug/mL in TBS+/0.1% BSA were added and the plate covered and incubated for 1 hr at room temperature. After washing the plate 3× with 150 μL of TBS+ buffer, 50 μL of streptavidin-conjugated horseradish peroxidase (R&D Systems, DY998) diluted in TBS+ blocking buffer were added to the wells and the plate incubated for 20 min at room temperature. The plate was washed 3× with TBS+ buffer followed by 50 μL of room temperature TMB substrate (Sigma, T444) added to each well and the plate incubated for 20 min at room temperature. The reaction was optionally stopped with 25 μL of Stop Solution (Sigma S5689). Plates were read by colorimetric detection at 650 nm wavelength using a Tecan Safire II plate reader.

The target in experiment [2] is T2, Recombinant human integrin αvβ8 (Homo sapiens, UniProt P06756+P26012).
T2 construct: purchased R&D Systems 4135-AV
The experiment in a line: Solid Phase Receptor Assay for αvβ8 Function. As to conditions: binding to LAP-coated plate; read-out: αvβ8 SPRA IC50. As for the experimental part:
Solid Phase Receptor Assay for αvβ8 Function.
Wells were washed 3 times with 150 μL TBS+ and 150 μL of blocking buffer (TBS+ with 1% bovine serum albumin, Sigma A7906) were added. The plate was incubated for 1 hr at 37° C. and then washed 3× with TBS+. […] Compounds were diluted 1:100 into the integrin solution and 50 μL added to empty wells of the washed LAP-coated plate according to a standard template with each sample repeated in triplicate. After incubation for two hours at room temperature, the plate was washed 3× with 150 μL of TBS+. To each well, 50 μL of biotinylated anti-αv antibody (R&D Systems, BAF1219) at 1 μg/mL in TBS+/0.1% BSA were added and the plate was covered and incubated for 1 hr at room temperature. After washing the plate 3× with 150 μL of TBS+ buffer, 50 μL of streptavidin-conjugated horseradish peroxidase (R&D Systems, DY998) diluted in TBS+ blocking buffer were added to the wells and the plate incubated for 20 min at room temperature. The plate was washed 3× with TBS+ followed by 50 μL of TMB substrate (Sigma T4444) added to each well and the plate incubated for 20 min at room temperature. The reaction was optionally stopped with 25 μL of Stop Solution (Sigma S5689). Plates were read by colorimetric detection at 650 nm wavelength using a Tecan Safire II plate reader.

Structures are written as SMILES.

Usually IC50 stands for the concentration that gives 50% inhibition.

T1 sequence (P08648 42-995 limits assumed): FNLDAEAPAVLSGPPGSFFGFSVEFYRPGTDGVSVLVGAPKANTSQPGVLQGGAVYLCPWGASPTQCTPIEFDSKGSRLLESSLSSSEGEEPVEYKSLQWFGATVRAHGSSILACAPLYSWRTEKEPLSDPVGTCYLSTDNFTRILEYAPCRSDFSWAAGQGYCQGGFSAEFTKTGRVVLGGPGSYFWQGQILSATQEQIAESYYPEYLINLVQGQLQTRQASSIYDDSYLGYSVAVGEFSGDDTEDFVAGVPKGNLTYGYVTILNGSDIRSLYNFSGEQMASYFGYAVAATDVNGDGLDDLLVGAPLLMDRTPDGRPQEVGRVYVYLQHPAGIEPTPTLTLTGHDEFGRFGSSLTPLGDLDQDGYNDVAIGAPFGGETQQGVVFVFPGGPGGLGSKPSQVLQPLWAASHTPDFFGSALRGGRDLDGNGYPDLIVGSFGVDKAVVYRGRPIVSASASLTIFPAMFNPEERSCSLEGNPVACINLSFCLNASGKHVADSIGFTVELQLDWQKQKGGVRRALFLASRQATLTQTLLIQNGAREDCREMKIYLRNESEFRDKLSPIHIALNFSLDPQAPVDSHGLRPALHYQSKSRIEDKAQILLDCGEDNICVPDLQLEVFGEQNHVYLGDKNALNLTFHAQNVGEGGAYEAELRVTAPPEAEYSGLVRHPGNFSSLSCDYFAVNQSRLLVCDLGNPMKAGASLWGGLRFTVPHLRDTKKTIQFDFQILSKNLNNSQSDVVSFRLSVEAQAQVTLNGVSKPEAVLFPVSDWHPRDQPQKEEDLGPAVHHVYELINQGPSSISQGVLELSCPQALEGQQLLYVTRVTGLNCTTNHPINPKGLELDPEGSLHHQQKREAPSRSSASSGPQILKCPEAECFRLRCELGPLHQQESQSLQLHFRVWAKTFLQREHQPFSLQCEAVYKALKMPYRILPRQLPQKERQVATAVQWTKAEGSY
T1 sequence (P05556 21-728 limits assumed): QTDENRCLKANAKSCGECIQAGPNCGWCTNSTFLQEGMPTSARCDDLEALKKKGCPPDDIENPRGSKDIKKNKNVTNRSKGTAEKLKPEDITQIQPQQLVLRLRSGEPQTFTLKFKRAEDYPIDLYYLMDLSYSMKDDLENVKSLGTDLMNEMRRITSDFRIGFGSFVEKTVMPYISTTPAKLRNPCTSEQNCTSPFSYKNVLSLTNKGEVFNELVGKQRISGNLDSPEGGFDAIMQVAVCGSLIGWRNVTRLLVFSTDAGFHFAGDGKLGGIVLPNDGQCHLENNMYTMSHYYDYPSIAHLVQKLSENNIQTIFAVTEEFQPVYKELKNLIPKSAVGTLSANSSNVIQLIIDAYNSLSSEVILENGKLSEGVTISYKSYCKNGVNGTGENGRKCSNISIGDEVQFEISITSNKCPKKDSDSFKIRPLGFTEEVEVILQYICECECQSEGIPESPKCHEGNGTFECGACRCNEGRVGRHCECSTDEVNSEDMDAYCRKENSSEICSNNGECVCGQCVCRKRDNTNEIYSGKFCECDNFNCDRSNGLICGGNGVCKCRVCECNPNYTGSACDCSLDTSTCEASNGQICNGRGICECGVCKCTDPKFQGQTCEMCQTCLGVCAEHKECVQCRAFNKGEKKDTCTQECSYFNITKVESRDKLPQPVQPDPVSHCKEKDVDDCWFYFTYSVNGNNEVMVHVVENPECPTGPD
T2 sequence (P06756 31-992 limits assumed): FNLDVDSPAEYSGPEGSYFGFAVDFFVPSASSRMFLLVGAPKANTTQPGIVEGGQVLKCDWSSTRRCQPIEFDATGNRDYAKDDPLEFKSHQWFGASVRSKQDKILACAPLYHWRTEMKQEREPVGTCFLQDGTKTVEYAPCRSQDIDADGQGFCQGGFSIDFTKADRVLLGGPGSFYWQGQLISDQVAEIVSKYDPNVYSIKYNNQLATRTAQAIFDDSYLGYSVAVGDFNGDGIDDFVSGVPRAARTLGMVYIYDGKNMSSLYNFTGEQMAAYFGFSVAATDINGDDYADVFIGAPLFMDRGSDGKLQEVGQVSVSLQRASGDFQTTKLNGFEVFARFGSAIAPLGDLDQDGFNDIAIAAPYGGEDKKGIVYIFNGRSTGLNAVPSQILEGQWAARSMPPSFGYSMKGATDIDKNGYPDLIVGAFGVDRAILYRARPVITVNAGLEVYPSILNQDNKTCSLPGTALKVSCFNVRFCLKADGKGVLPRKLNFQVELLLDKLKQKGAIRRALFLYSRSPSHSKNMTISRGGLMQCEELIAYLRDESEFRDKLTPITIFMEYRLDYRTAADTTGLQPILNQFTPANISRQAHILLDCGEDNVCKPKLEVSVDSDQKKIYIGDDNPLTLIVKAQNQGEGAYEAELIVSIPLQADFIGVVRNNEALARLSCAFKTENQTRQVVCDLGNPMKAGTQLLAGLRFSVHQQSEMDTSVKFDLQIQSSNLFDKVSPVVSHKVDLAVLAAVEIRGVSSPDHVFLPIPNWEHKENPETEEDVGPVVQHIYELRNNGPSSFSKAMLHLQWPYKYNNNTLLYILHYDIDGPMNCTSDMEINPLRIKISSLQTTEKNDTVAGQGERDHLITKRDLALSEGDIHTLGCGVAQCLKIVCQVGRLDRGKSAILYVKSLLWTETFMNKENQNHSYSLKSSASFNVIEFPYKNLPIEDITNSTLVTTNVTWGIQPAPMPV
T2 sequence (P26012 43-684 limits assumed): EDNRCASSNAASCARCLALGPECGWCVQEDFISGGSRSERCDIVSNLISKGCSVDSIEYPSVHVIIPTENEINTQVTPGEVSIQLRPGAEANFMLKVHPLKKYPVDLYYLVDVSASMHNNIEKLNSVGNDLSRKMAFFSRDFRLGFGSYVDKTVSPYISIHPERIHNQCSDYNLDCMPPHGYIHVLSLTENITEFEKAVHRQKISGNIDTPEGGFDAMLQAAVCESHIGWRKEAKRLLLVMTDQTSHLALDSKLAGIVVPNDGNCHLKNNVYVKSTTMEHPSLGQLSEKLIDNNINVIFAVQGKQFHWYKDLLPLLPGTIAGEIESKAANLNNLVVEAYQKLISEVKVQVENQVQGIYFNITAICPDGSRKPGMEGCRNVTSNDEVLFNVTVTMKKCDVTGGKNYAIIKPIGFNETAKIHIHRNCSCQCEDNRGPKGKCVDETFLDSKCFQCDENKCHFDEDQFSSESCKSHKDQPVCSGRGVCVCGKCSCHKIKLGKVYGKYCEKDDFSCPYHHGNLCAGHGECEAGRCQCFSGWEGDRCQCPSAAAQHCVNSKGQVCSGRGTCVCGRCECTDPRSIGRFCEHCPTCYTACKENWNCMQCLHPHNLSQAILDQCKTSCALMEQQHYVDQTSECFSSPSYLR

As to `CC(C)(C)c1cc(Br)c(O)c([C@H](CC(=O)O)NC(=O)CNC(=O)c2cc(O)cc(NC3=NCC(O)CN3)c2)c1` (stereo partly drawn) [Example 1, (3S)-3-(3-bromo-5-(tert-butyl)-2-hydroxyphenyl)-3-(2-(3-hydroxy-5-((5-hydroxy-1,4,5,6-tetrahydropyrimidin-2-yl)amino)benzamido)acetamido)propanoic acid], the IC50 turned out to be 0.5 nM in experiment [1] and 0.1 nM in experiment [2].
For the compound `CC(C)(C)c1cc(Br)cc([C@H](CC(=O)O)NC(=O)CNC(=O)c2cc(O)cc(NC3=NCC(O)CN3)c2)c1O` (stereo partly drawn) [Example 2, (3S)-3-(5-bromo-3-(tert-butyl)-2-hydroxyphenyl)-3-(2-(3-hydroxy-5-((5-hydroxy-1,4,5,6-tetrahydropyrimidin-2-yl)amino)benzamido)acetamido)propanoic acid], the concentration for half-maximal inhibition (IC50) was determined as 0.5 nM in experiment [1] and 0.1 nM in experiment [2].
For `CC(C)(O)c1cc(Br)cc([C@H](CC(=O)O)NC(=O)CNC(=O)c2cc(O)cc(NC3=NCC(O)CN3)c2)c1` (stereo partly drawn) [Example 3, (3S)-3-(3-bromo-5-(2-hydroxypropan-2-yl)phenyl)-3-(2-(3-hydroxy-5-((5-hydroxy-1,4,5,6-tetrahydropyrimidin-2-yl)amino)benzamido)acetamido)propanoic acid] the same measures were 0.3 nM and 0.4 nM.
For `CC(C)(O)c1cc(Cl)cc([C@H](CC(=O)O)NC(=O)CNC(=O)c2cc(O)cc(NC3=NCC(O)CN3)c2)c1` (stereo partly drawn) [Example 4, (3S)-3-(3-chloro-5-(2-hydroxypropan-2-yl)phenyl)-3-(2-(3-hydroxy-5-((5-hydroxy-1,4,5,6-tetrahydropyrimidin-2-yl)amino)benzamido)acetamido)propanoic acid] the same measures were 0.7 nM and 0.6 nM.
For `CC(C)(C)c1cc(Br)cc([C@H](CC(=O)O)NC(=O)CNC(=O)c2cccc(NC(=N)N)c2)c1` [Example 5, (S)-3-(3-bromo-5-(tert-butyl)phenyl)-3-(2-(3-guanidinobenzamido)acetamido) propanoic acid], the figures for the IC50 in experiment [1] and in experiment [2] were 0.6 nM and 0.2 nM, respectively.
For `CC(C)(C)c1cc(Br)cc([C@H](CC(=O)O)NC(=O)CNC(=O)c2cncc(NC(=N)N)c2)c1` [Example 6, (S)-3-(3-bromo-5-(tert-butyl)phenyl)-3-(2-(5-guanidinonicotinamido)acetamido) propanoic acid] the same measures were 1 nM and 0.3 nM.
For `CC(C)(C)c1cc(Br)cc([C@H](CC(=O)O)NC(=O)CNC(=O)c2cccc(NC3=NCCN3)c2)c1` [Example 7, (S)-3-(3-bromo-5-(tert-butyl)phenyl)-3-(2-(3-((4,5-dihydro-1H-imidazol-2-yl)amino)benzamido)acetamido)propanoic acid] the same measures were 0.7 nM and 0.1 nM.
The like results for `CC(C)(C)c1cc(Br)cc([C@H](CC(=O)O)NC(=O)CNC(=O)c2cncc(NC3=NCC(O)CN3)c2)c1` (stereo partly drawn) [Example 8, (3S)-3-(3-bromo-5-(tert-butyl)phenyl)-3-(2-(5-((5-hydroxy-1,4,5,6-tetrahydropyrimidin-2-yl)amino)nicotinamido)acetamido)propanoic acid] were, in that order, 0.4 nM and 0.1 nM.
Take `CC(C)(C)c1cc(Br)cc([C@H](CC(=O)O)NC(=O)CNC(=O)c2cc(O)cc(NC3=NCCN3)c2)c1` [Example 9, (S)-3-(3-bromo-5-(tert-butyl)phenyl)-3-(2-(3-((4,5-dihydro-1H-imidazol-2-yl)amino)-5-hydroxybenzamido)acetamido)propanoic acid]: the concentration for half-maximal inhibition (IC50) stood at 0.5 nM in experiment [1] and 0.1 nM in experiment [2].
For `CC(C)(C)c1cc([C@H](CC(=O)O)NC(=O)CNC(=O)c2cncc(NC(=N)N)c2)cc(C(C)(C)C)c1` [Example 10, (S)-3-(3,5-di-tert-butylphenyl)-3-(2-(5-guanidinonicotinamido)acetamido)propanoic acid] the same measures were 0.5 nM and 0.2 nM.
For the compound `CC(C)(C#N)c1cc(Br)cc([C@H](CC(=O)O)NC(=O)CNC(=O)c2cc(O)cc(NC3=NCC(O)CN3)c2)c1` (stereo partly drawn) [Example 11, (3S)-3-(3-bromo-5-(2-cyanopropan-2-yl)phenyl)-3-(2-(3-hydroxy-5-((5-hydroxy-1,4,5,6-tetrahydropyrimidin-2-yl)amino)benzamido)acetamido)propanoic acid], the IC50 in experiment [1] was 0.3 nM; in experiment [2] it was 0.2 nM.
The like results for `CC(C)(C)c1cc(C#N)cc([C@H](CC(=O)O)NC(=O)CNC(=O)c2cc(O)cc(NC3=NCC(O)CN3)c2)c1` (stereo partly drawn) [Example 12, (3S)-3-(3-(tert-butyl)-5-cyanophenyl)-3-(2-(3-hydroxy-5-((5-hydroxy-1,4,5,6-tetrahydro-pyrimidin-2-yl)amino)benzamido)acetamido)propanoic acid] were, in that order, 0.3 nM and 0.2 nM.
The like results for `CC(C)(O)c1cc([C@H](CC(=O)O)NC(=O)CNC(=O)c2cc(O)cc(NC3=NCC(O)CN3)c2)cc(C(F)(F)F)c1` (stereo partly drawn) [Example 13, (3S)-3-(2-(3-hydroxy-5-((5-hydroxy-1,4,5,6-tetrahydropyrimidin-2-yl)amino)benzamido)acetamido)-3-(3-(2-hydroxypropan-2-yl)-5-(trifluoromethyl)phenyl)propanoic acid] were, in that order, 0.9 nM and 0.6 nM.
Turning to `COCC(C)(C)c1cc(Cl)cc([C@H](CC(=O)O)NC(=O)CNC(=O)c2cc(O)cc(NC3=NCC(O)CN3)c2)c1` (stereo partly drawn) [Example 14, (3S)-3-(3-chloro-5-(1-methoxy-2-methylpropan-2-yl)phenyl)-3-(2-(3-hydroxy-5-((5-hydroxy-1,4,5,6-tetrahydropyrimidin-2-yl)amino)benzamido)acetamido)propanoic acid], the 50% inhibitory concentration (IC50) in experiment [1] was found to be 0.2 nM; in experiment [2], 0.3 nM.
The like results for `CC(C)(CO)c1cc(Cl)cc([C@H](CC(=O)O)NC(=O)CNC(=O)c2cc(O)cc(NC3=NCC(O)CN3)c2)c1` (stereo partly drawn) [Example 15, (3S)-3-(3-chloro-5-(1-hydroxy-2-methylpropan-2-yl)phenyl)-3-(2-(3-hydroxy-5-((5-hydroxy-1,4,5,6-tetrahydropyrimidin-2-yl)amino)benzamido)acetamido)propanoic acid] were, in that order, 0.4 nM and 0.3 nM.
For the compound `COCC1(c2cc(Cl)cc([C@H](CC(=O)O)NC(=O)CNC(=O)c3cc(O)cc(NC4=NCC(O)CN4)c3)c2)CCOCC1` (stereo partly drawn) [Example 16, (3S)-3-(3-chloro-5-(4-(Methoxymethyl)tetrahydro-2H-pyran-4-yl)phenyl)-3-(2-(3-hydroxy-5-((5-hydroxy-1,4,5,6-tetrahydropyrimidin-2-yl)amino)benzamido)acetamido)propanoic acid], the figures for the IC50 in experiment [1] and in experiment [2] were 0.5 nM and 0.4 nM, respectively.
`O=C(O)C[C@H](NC(=O)CNC(=O)c1cc(O)cc(NC2=NCC(O)CN2)c1)c1cc(Cl)cc(C2(CO)CCOCC2)c1` (stereo partly drawn) [Example 17, (3S)-3-(3-chloro-5-(4-(hydroxymethyl)tetrahydro-2H-pyran-4-yl)phenyl)-3-(2-(3-hydroxy-5-((5-hydroxy-1,4,5,6-tetrahydropyrimidin-2-yl)amino)benzamido)acetamido)propanoic acid]: the IC50 in experiment [1] and in experiment [2] was 0.4 nM throughout.
Take `CC(C)(C)c1cc(-c2cccnc2)cc([C@H](CC(=O)O)NC(=O)CNC(=O)c2cc(O)cc(NC3=NCC(O)CN3)c2)c1` (stereo partly drawn) [Example 18, (3S)-3-(3-(tert-butyl)-5-(pyridin-3-yl)phenyl)-3-(2-(3-hydroxy-5-((5-hydroxy-1,4,5,6-tetrahydropyrimidin-2-yl)amino)benzamido)acetamido)propanoic acid]: the IC50 worked out at 0.4 nM in experiment [1] and 0.3 nM in experiment [2].
For `CC(C)(C)c1cc(-c2cncnc2)cc([C@H](CC(=O)O)NC(=O)CNC(=O)c2cc(O)cc(NC3=NCC(O)CN3)c2)c1` (stereo partly drawn) [Example 19, (3S)-3-(3-(tert-butyl)-5-(pyrimidin-5-yl)phenyl)-3-(2-(3-hydroxy-5-((5-hydroxy-1,4,5,6-tetrahydropyrimidin-2-yl)amino)benzamido)acetamido)propanoic acid] the same measures were 0.4 nM and 0.4 nM.
